Structures can show the parent of a compound that is named as a salt.
Columns and labels:
[1] = biological target: T1, purified human Factor XIa (Homo sapiens, UniProt P03951); test: Factor XIa inhibition assay, chromogenic substrate S-2366 (Ki); type: biochemical
T1 construct: purchased Haematologic Technologies
Protocol: (§1) The effectiveness of compounds of the present invention as inhibitors of the coagulation Factors XIa, VIIa, IXa, Xa, XIIa, plasma kallikrein or thrombin, can be determined using a relevant purified serine protease, respectively, and an appropriate synthetic substrate. The rate of hydrolysis of the chromogenic or fluorogenic substrate by the relevant serine protease was measured both in the absence and presence of compounds of the present invention. […] A decrease in the rate of absorbance or fluorescence change in the presence of inhibitor is indicative of enzyme inhibition. Such methods are known to one skilled in the art. The results of this assay are expressed as the inhibitory constant, Ki.
Factor XIa determinations were made in 50 mM HEPES buffer at pH 7.4 containing 145 mM NaCl, 5 mM KCl, and 0.1% PEG 8000 (polyethylene glycol; JT Baker or Fisher Scientific). Determinations were made using purified human Factor XIa at a final concentration of 25-200 pM (Haematologic Technologies) and the synthetic substrate S-2366 (pyroGlu-Pro-Arg-pNA; Chromogenix or AnaSpec) at a concentration of 0.0002-0.001 M.
(§2) Values of Ki were determined by allowing the protease to react with the substrate in the presence of the inhibitor.
(§3) Reactions were allowed to go for periods of 20-180 minutes (depending on the protease) and the velocities (rate of absorbance or fluorescence change versus time) were measured.
(§4) The following relationships were used to calculate Ki values: (Vmax*S)/(Km+S) (vo−vs)/vs=I/(Ki(1+S/Km)) for a competitive inhibitor with one binding site; or vs/vo=A+((B−A)/1+((IC50/(I)^n))); and Ki=IC50/(1+S/Km) for a competitive inhibitor where: […]

[2] = biological target: T2, purified human plasma kallikrein (Homo sapiens, UniProt P03952); test: Plasma kallikrein inhibition assay, chromogenic substrate S-2302 (Ki); type: biochemical
T2 construct: Plasma prekallikrein is a zymogen of a trypsin-like serine protease; purchased Enzyme Research Laboratories
Protocol: as §1
Plasma kallikrein determinations were made in 0.1 M sodium phosphate buffer at a pH of 7.5 containing 0.1-0.2 M sodium chloride and 0.5% PEG 8000. Determinations were made using purified human plasma kallikrein (Enzyme Research Laboratories) at a final assay concentration of 200 pM and the synthetic substrate S-2302 (H-(D)-Pro-Phe-Arg-pNA; Chromogenix) at a concentration of 0.00008-0.0004 M.
as §2, §3, §4

T1 sequence (P03951 388-625 limits assumed): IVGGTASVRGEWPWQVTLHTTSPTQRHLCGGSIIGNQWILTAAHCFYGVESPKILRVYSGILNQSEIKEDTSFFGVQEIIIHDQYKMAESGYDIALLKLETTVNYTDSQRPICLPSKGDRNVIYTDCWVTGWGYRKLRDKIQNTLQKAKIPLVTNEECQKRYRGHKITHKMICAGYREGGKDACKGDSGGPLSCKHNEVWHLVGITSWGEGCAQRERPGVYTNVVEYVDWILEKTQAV
T1 sequence (P03951 19-387 partner limits assumed): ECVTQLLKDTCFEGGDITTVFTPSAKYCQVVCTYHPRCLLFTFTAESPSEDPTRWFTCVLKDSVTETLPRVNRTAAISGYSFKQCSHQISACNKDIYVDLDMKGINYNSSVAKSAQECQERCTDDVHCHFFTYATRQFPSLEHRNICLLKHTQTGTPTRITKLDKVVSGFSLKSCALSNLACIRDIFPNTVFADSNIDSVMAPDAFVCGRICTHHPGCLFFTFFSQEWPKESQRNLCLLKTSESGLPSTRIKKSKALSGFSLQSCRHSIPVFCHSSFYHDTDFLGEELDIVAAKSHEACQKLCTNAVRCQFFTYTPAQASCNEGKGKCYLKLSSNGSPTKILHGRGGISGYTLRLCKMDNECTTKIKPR
T2 sequence (P03952 391-638 limits assumed): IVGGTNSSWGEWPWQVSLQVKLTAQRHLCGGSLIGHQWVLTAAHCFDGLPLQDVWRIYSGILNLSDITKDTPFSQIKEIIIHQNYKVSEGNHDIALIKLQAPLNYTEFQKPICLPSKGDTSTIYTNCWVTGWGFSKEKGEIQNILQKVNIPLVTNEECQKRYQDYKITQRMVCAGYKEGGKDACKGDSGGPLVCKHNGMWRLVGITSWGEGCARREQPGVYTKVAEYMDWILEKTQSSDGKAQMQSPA
T2 sequence (P03952 20-390 partner limits assumed): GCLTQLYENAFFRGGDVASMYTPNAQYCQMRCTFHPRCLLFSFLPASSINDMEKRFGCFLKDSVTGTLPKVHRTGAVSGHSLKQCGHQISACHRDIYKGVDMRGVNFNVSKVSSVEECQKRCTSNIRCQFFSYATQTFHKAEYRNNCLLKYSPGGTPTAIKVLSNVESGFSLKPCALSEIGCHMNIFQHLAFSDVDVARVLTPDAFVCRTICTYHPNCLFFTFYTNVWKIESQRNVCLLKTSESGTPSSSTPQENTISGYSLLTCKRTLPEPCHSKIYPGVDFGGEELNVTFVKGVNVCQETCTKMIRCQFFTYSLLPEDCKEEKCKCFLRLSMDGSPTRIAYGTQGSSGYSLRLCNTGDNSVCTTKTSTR

| Ki [1] [nM] | Ki [2] [nM] | Structure (SMILES) |
| --- | --- | --- |
| 1.9 | 11 | C[C@@H]1CCC[C@H](N2CCC(c3c(Cl)ccc(Cl)c3F)=CC2=O)c2cc(ccn2)-c2c(cnn2C(F)F)NC1=O [Example 31, (9R,13S)-13-[4-(3,6-dichloro-2-fluorophenyl)-6-oxo-1,2,3,6-tetrahydropyridin-1-yl]-3-(difluoromethyl)-9-methyl-3,4,7,15-tetraazatricyclo [12.3.1.0^2,6]octadeca-1(18),2(6),4,14,16-pentaen-8-one] |
| 2.4 | 4 | [2H]C([2H])([2H])n1ncc2c1-c1ccnc(c1)[C@@H](N1CCC(c3cc(Cl)ccc3C#N)=CC1=O)CCC[C@@H](C)C(=O)N2 [Example 32, 4-chloro-2-{1-[(9R,13S)-3-(^2H3)methyl-9-methyl-8-oxo-3,4,7,15-tetraazatricyclo[12.3.1.0^2,6]octadeca-1(18),2(6),4,14,16-pentaen-13-yl]-6-oxo-1,2,3,6-tetrahydropyridin-4-yl}benzonitrile] |
| 5.7 | 50 | C[C@@H]1CCC[C@H](N2CCC(c3c(C(C)(F)F)ccc(Cl)c3F)=CC2=O)c2cc(ccn2)-c2c(cnn2C)NC1=O [Example 33, (9R,13S)-13-{4-[3-chloro-6-(1,1-difluoroethyl)-2-fluorophenyl]-6-oxo-1,2,3,6-tetrahydropyridin-1-yl}-3,9-dimethyl-3,4,7,15-tetraazatricyclo[12.3.1.0^2,6]octadeca-1(18),2(6),4,14,16-pentaen-8-one] |
| 0.82 | 32 | C[C@@H]1CCC[C@H](N2CCC(c3cc(Cl)ccc3-n3cc(Cl)nn3)=CC2=O)c2cc(ccn2)-c2c(cnn2CCO)NC1=O [Example 35, (9R,13S)-13-{4-[5-chloro-2-(4-chloro-1H-1,2,3-triazol-1-yl)phenyl]-6-oxo-1,2,3,6-tetrahydropyridin-1-yl}-3-(2-hydroxyethyl)-9-methyl-3,4,7,15-tetraazatricyclo[12.3.1.0^2,6]octadeca-1(18),2(6),4,14,16-pentaen-8-one] |
| 1.7 | 5 | C[C@@H]1CCC[C@H](N2CCC(c3c(Br)ccc(Cl)c3F)=CC2=O)c2cc(ccn2)-c2c(cnn2C)NC1=O [Example 36, (9R,13S)-13-[4-(6-bromo-3-chloro-2-fluorophenyl)-6-oxo-1,2,3,6-tetrahydropyridin-1-yl]-3,9-dimethyl-3,4,7,15-tetraazatricyclo[12.3.1.0^2,6]octadeca-1(18),2(6),4,14,16-pentaen-8-one] |

The remaining lines, values behind:

| Structure (SMILES) | Ki [1] [nM] | Ki [2] [nM] |
| --- | --- | --- |
| C[C@H]1C(=O)Nc2cnn(C)c2-c2ccnc(c2)[C@@H](N2CCC(c3c(C(F)(F)F)ccc(Cl)c3F)=CC2=O)CCC1F (stereo partly drawn) [Example 20, (9S,13S)-13-{4-[3-chloro-2-fluoro-6-(trifluoromethyl)phenyl]-6-oxo-1,2,3,6-tetrahydropyridin-1-yl}-10-fluoro-3,9-dimethyl-3,4,7,15-tetraazatricyclo[12.3.1.0^2,6]octadeca-1(18),2(6),4,14,16-pentaen-8-one] | 1.4 | 40 |
| C[C@@H]1CCC[C@H](N2CCC(c3c(OC(F)F)ccc(Cl)c3F)=CC2=O)c2cc(ccn2)-c2c(cnn2C(F)F)NC1=O [Example 21, (9R,13S)-13-{4-[3-chloro-6-(difluoromethoxy)-2-fluorophenyl]-6-oxo-1,2,3,6-tetrahydropyridin-1-yl}-3-(difluoromethyl)-9-methyl-3,4,7,15-tetraazatricyclo[12.3.1.0^2,6]octadeca-1(18),2(6),4,14,16-pentaen-8-one] | 0.69 | 40 |
| C[C@@H]1CCC[C@H](N2CCC(c3c(F)ccc(Cl)c3F)=CC2=O)c2cc(ccn2)-c2c(cnn2C(F)F)NC1=O [Example 22, (9R,13S)-13-[4-(3-chloro-2,6-difluorophenyl)-6-oxo-1,2,3,6-tetrahydropyridin-1-yl]-3-(difluoromethyl)-9-methyl-3,4,7,15-tetraazatricyclo [12.3.1.0^2,6]octadeca-1(18),2(6),4,14,16-pentaen-8-one] | 8 | 50 |
| C[C@@H]1CCC[C@H](N2CCC(c3c(OC(F)F)ccc(Cl)c3F)=CC2=O)c2cc(ccn2)-c2c(cnn2C)NC1=O [Example 23, (9R,13S)-13-{4-[3-chloro-6-(difluoromethoxy)-2-fluorophenyl]-6-oxo-1,2,3,6-tetrahydropyridin-1-yl}-3,9-dimethyl-3,4,7,15-tetraazatricyclo[12.3.1.0^2,6]octadeca-1(18),2(6),4,14,16-pentaen-8-one] | 0.92 | 7 |
| C[C@@H]1CCC[C@H](N2CCC(c3c(Cl)ccc(Cl)c3F)=CC2=O)c2cc(ccn2)-c2c(cnn2C)NC1=O [Example 24, (9R,13S)-13-[4-(3,6-dichloro-2-fluorophenyl)-6-oxo-1,2,3,6-tetrahydropyridin-1-yl]-3,9-dimethyl-3,4,7,15-tetraazatricyclo[12.3.1.0^2,6]octadeca-1(18),2(6),4,14,16-pentaen-8-one] | 2.7 | 6 |
| CC(C)[C@@H]1CCC[C@H](N2CCC(c3cc(Cl)ccc3-n3cc(Cl)nn3)=CC2=O)c2cc(ccn2)-c2c(cnn2C)NC1=O [Example 25, (9S,13S)-13-{4-[5-chloro-2-(4-chloro-1H-1,2,3-triazol-1-yl)phenyl]-6-oxo-1,2,3,6-tetrahydropyridin-1-yl}-3-methyl-9-(propan-2-yl)-3,4,7,15-tetraazatricyclo[12.3.1.0^2,6]octadeca-1(18),2(6),4,14,16-pentaen-8-one] | 0.47 | 16 |
| C[C@@H]1CCC[C@H](N2CCC(c3c(C(F)F)ccc(Cl)c3F)=CC2=O)c2cc(ccn2)-c2c(cnn2C)NC1=O [Example 26, (9R,13S)-13-{4-[3-chloro-6-(difluoromethyl)-2-fluorophenyl]-6-oxo-1,2,3,6-tetrahydropyridin-1-yl}-3,9-dimethyl-3,4,7,15-tetraazatricyclo [12.3.1.0^2,6]octadeca-1(18),2(6),4,14,16-pentaen-8-one] | 0.48 | 5 |
| C[C@@H]1CCC[C@H](n2ccc(-c3c(OC(F)F)ccc(Cl)c3F)cc2=O)c2cc(ccn2)-c2c(cnn2C)NC1=O [Example 27, (9R,13S)-13-{4-[3-chloro-6-(difluoromethoxy)-2-fluorophenyl]-2-oxo-1,2-dihydropyridin-1-yl}-3,9-dimethyl-3,4,7,15-tetraazatricyclo[12.3.1.0^2,6]octadeca-1(18),2(6),4,14,16-pentaen-8-one trifluoroacetate] | 4.9 | 40 |
| C[C@H]1C(=O)Nc2cnn(C)c2-c2ccnc(c2)[C@@H](n2ccc(-c3c(C(F)(F)F)ccc(Cl)c3F)cc2=O)CCC1F (stereo partly drawn) [Example 28, (9S,13S)-13-{4-[3-chloro-2-fluoro-6-(trifluoromethyl)phenyl]-2-oxo-1,2-dihydropyridin-1-yl}-10-fluoro-3,9-dimethyl-3,4,7,15-tetraazatricyclo[12.3.1.0^2,6]octadeca-1(18),2(6),4,14,16-pentaen-8-one trifluoroacetate] | 3 | 25 |
| [2H]C([2H])([2H])n1ncc2c1-c1ccnc(c1)[C@@H](N1CCC(c3c(C(F)F)ccc(Cl)c3F)=CC1=O)CCC[C@@H](C)C(=O)N2 [Example 29, (9R,13S)-13-{4-[3-chloro-6-(difluoromethyl)-2-fluorophenyl]-6-oxo-1,2,3,6-tetrahydropyridin-1-yl}-3-(^2H3)methyl-9-methyl-3,4,7,15-tetraazatricyclo[12.3.1.0^2,6]octadeca-1(18),2(6),4,14,16-pentaen-8-one] | 0.6 | 6 |
| [2H]C([2H])([2H])n1ncc2c1-c1ccnc(c1)[C@@H](N1CCC(c3c(OC(F)F)ccc(Cl)c3F)=CC1=O)CCC[C@@H](C)C(=O)N2 [Example 30, (9R,13S)-13-{4-[3-chloro-6-(difluoromethoxy)-2-fluorophenyl]-6-oxo-1,2,3,6-tetrahydropyridin-1-yl}-3-(^2H3)methyl-9-methyl-3,4,7,15-tetraazatricyclo[12.3.1.0^2,6]octadeca-1(18),2(6),4,14,16-pentaen-8-one] | 1 | 7 |
| C[C@@H]1CCC[C@H](N2CCC(c3cc(Cl)ccc3-n3cc(Cl)nn3)=CC2=O)c2cc(ccn2)-c2c(cnn2CCOC(C)(C)C)NC1=O [Example 34, (9R,13S)-3-[2-(tert-butoxy)ethyl]-13-{4-[5-chloro-2-(4-chloro-1H-1,2,3-triazol-1-yl)phenyl]-6-oxo-1,2,3,6-tetrahydropyridin-1-yl}-9-methyl-3,4,7,15-tetraazatricyclo[12.3.1.0^2,6]octadeca-1(18),2(6),4,14,16-pentaen-8-one] | 1.1 | 50 |

From patent US10273236B2, “Macrocyclic factor XIa inhibitors bearing heterocyclic groups” (Bristol-Myers Squibb Company, priority 2014, dated 2019)
